PMC10666548, “Identification of the bacterial metabolite aerugine as potential trigger of human dopaminergic neurodegeneration” (Environment international, 2023)
“Also recorded” adds a separate entry of the source.

Assays:
[1] = system: dopamine neurons of C. elegans BY200; assay: C. elegans dopaminergic neurodegeneration scoring (GFP-labelled neurons); type: in vivo, Caenorhabditis elegans; conditions: 48 h exposure
Experimental: The strain BY200 Pdat-1::gfp (vtIs1), dat-1::GFP(vtls1) was kindly provided by the Blakely laboratory, Vanderbilt University Medical Center and the strain Punc-25:GFP was obtained from the Caenorhabditis Genetics Center (CGC, University of Minnesota, Minneapolis, MN, USA). The worms were maintained in nematode growth medium (NGM) plates that contain: 3 g/l NaCl, 17 g/l agar, 2.5 g/l peptone, 1 mM CaCl2, 5 mg/l cholesterol, 1 mM MgSO4, 25 mM potassium phosphate buffer (pH 6.0) with 1.25 ml nystatin and 50 mg/l streptomycin sulfate) and Escherichia coli (E. coli) OP50 strain was used as food ([Brenner, 1974]). […]
On day 2 and day 8, approximately, 20–30 worms per treatment were picked onto slides prepped with a 3% agarose pad, anesthetized with 5 μl of 3 mM levamisole hydrochloride ([Sulston et al., 1975]) and observed under an Olympus BX41 fluorescence microscope to determine morphology status according to novel Likert-like scale of degeneration as previously described ([Benedetto et al., 2010]).
Fig. 5. […] They were exposed to different aerugine concentrations and counted every 24 h. […] Differences on a given day were analyzed by ANOVA and found to be non-significant. […] The GFP-labelled neurons of 20–30 worms per condition were analyzed and scored for specific neurodegeneration. […] These scores were assessed to quantify the dopaminergic neurodegeneration caused be aerugine in vivo. […]

LUHMES neurons = assay: Time course of cell death in d6 LUHMES (phase contrast, TMRE, H-33342, propidium iodide); type: cell-based, human; conditions: 10 μM
Experimental: Cells were stained either with 50 nM tetramethylrhodamine ethyl ester (TMRE) or 1.5 μM propidium iodide (PI) for at least 30 min at 37 °C and 5% CO2 ([Brüll et al., 2020]; [Krug et al., 2014]). Fluorescent imaging was performed (AxioObserver, Zeiss, Germany) with excitation/emission wavelengths of 575 ± 25/640 ± 35 nm.
To obtain additional information on the death process triggered by aerugine, we also examined earlier time points after exposure to a fixed concentration of 10 μM. Semi-quantitative information was obtained from phase contrast images, by staining of energized mitochondria with the potential-sensitive dye tetramethylrhodamine ethyl ester (TMRE) and by visualization of the chromatin structure with the […] dye H-33342. […] While the neurite structure was well-preserved, some of the cell bodies flattened in a way that the nucleus became visible in phase contrast. The normally round/dome-like cells took a flattened “fried egg” structure. In parallel, the DNA condensed and fragmented into small, round and highly-fluorescent spheres, a typical hallmark of apoptosis. Cells with apoptotic nuclei had lost their TMRE stain. At 8 h, more cell bodies looked flattened (“unhealthy”) and the neurites were thinning. […] This sequence of events is typical of neuronal apoptosis, e.g. under mild excitotoxic conditions, or after exposure to proteasome inhibitors or cytoskeletal poisons ([Gutbier et al., 2018b]; [Leist et al., 1997]; [Volbracht et al., 2001]; [Volbracht et al., 1999]). The overall kinetics of cell death was rather fast, compared to many other toxicants. […] To obtain a more quantitative confirmation of the rapid process, cells were stained with calcein-acetoxymethyl ester and propidium iodide (PI) and observed over time. The staining of nuclei (indication of plasma membrane permeability) by PI was quantified by an imaging algorithm. By 6 h, dead cells increased by 17 ± 6%, by 8 h by 25 ± 5%, and by 10 h, > 95% of the cell nuclei were positive. This confirms the fast cell death process triggered by aerugine (10 μM) in neurons.

Enterococcus faecalis = assay: Bacterial growth assay; type: cell-based; conditions: 20 μM, log growth phase
Experimental: Enterococcus faecalis was grown in BHI medium (BD Difco Brain Heart Infusion) with 36 g/l supplemented with 20 μg/ml hemin, 20 μg/ml NAD and 15 g/l agar for plates. Enterococcus faecalis strain 438 originates from eye isolate. Neisseria gonorrhoeae strain MS11 was gifted by T. F. Meyer (Max-Planck-Institute for Infection Biology, Berlin, Germany) ([Edwards et al., 1984]).
Bacteria were grown as described above on solid medium. Prior to substance exposure, bacteria were pre-cultured in liquid medium for at least 2 h. Optical density was determined and a volume equal to an OD550 of 0.2 for Neisseria gonorrhoeae MS11 (equates a final OD550 of 0.04) and an OD600 of 0.2 for Enterococcus faecalis (equates a final OD600 of 0.04) was inoculated into 5 ml of the respective liquid medium. Compound was added at the indicated amounts. Dimethyl sulfoxide (DMSO) level was adjusted to 1 % of final concentration including DMSO control. Samples were incubated for either 10.5 h, until they reached a stationary phase (three measured values in stationary phase) or until they reached an OD of 2.5. Optical density was determined every 0.5 h at OD550 for Neisseria gonorrhoeae MS11 and at OD600 for Enterococcus faecalis. ([Szamosvári et al., 2019]).

In the case of `OCC1CSC(c2ccccc2O)=N1` (stereo not drawn) [aerugine, 2-[4-(hydroxymethyl)-4,5-dihydro-1,3-thiazol-2-yl]phenol], the “DAergic neurons that lost their normal (fully) healthy phenotype” value [1] is reported as “Up to 50%”, the “degeneration of DA neurons” value ([1]; L4 worms) is reported as “concentration-dependent degeneration of DA neurons; also recorded: specific neurodegeneration was observed” and the “morphology (phase contrast, TMRE, H-33342)” value (LUHMES neurons; 6 h exposure) is reported as “clear morphological changes became obvious”. The “mitochondrial membrane potential in intact neurites (TMRE)” value (LUHMES neurons; 8 h) was “the mitochondrial membrane potential was lost”, the “morphology (neurites, nuclei)” value (LUHMES neurons; 10 h) was “the majority of neurites was lost” and the “increase of dead cells (PI-stained nuclei)” value (LUHMES neurons; by 6 h) was 17 ± 6%. The “increase of dead cells (PI-stained nuclei)” value (LUHMES neurons; by 8 h) was 25 ± 5%, the PI-positive cell nuclei (LUHMES neurons; by 10 h) was greater than 95% and the viability or growth (Enterococcus faecalis) was “not affected in viability or growth”.
